Reference: ChEMBL document CHEMBL1157539, “Thousands of chemical starting points for antimalarial lead identification” (Nature, 2010)

What follows are compounds tested on Plasmodium falciparum (assay: GSK_TCMDC: Inhibition of Plasmodium falciparum 3D7 in whole erythrocytes, using parasite LDH activity as an index of growth.). Conditions: not given.
Assay type: functional, organism-based

Row | Compound | XC50 [nM]
1 | Cc1ccc(CC(C)NCC(O)c2cccc(C(F)(F)F)c2)cc1 (configuration not stated) | 709
2 | O=C(NC1CCC(CN2CCC(c3c[nH]c4ccccc34)CC2)CC1)c1cc2ccccc2s1 (configuration not stated) | 725

Same assay, conditions: Plasmodium falciparum, 3D7

Row | Compound | XC50 [nM]
3 | O=C(O)c1ccc2c(c1)N(C(=O)CNCc1ccc(F)cc1)CC(=O)N2CCCc1ccccc1 | 919
4 | c1ccc(C(OCCC2CCN(Cc3cccnc3)CC2)c2ccccc2)cc1 | 817
5 | Cc1cccc2nc(-c3ccc(-c4cccc(NC(=O)Nc5ccc(F)c(F)c5F)c4)cc3)[nH]c12 | 338
6 | Cc1nn(CCOC(=O)NC(NCC2COc3ccccc3O2)C(Cl)(Cl)Cl)cc1[N+](=O)[O-] (configuration not stated) | 917
7 | O=C(Nc1cccc(OC2CCN(Cc3ccc(F)cc3)CC2)c1)c1ccc(C(F)(F)F)cc1 | 952
8 | CN1CCN(c2cc(NC(=O)Nc3cccc(Cl)c3Cl)ccc2Cl)CC1 | 734
9 | Cc1c(N=O)cc(C(C)(C)C)c(O)c1C(=O)Nc1ccc([N+](=O)[O-])cc1Cl | 775
10 | CCCCN(Cc1cc(Cl)c(OC)c(OC)c1)c1ccc(C(O)(C(F)(F)F)C(F)(F)F)cc1 | 194
11 | CN1CCN(Cc2cccc(Nc3nccc(Nc4ccc(Oc5ccccc5)cc4)n3)c2)CC1 | 296
12 | O=[N+]([O-])c1cccc(NC(=S)N2CCCN(Cc3ccc(C(F)(F)F)cc3)CC2)c1 | 1200
13 | CCNc1cc(C(=O)N[C@@H](Cc2ccccc2)[C@H](O)CNCc2cc(C#N)ccc2OC)cc(N2CCCC2=O)c1 | 1230
14 | COc1ccc(C(=C(C)CC(C)C(=O)O)c2ccccc2)cc1 (configuration not stated) | 845
15 | Oc1cccc(Nc2nc(NCc3ccccc3)c3ccccc3n2)c1 | 41.3
16 | O=c1cc(NCCCNCc2ccc(C(F)(F)F)c(F)c2)[nH]c2ccccc12 | 1190
17 | CCn1c(-c2nonc2N)nc2c(-c3cccc(NC(=O)Nc4cccc(Cl)c4)c3)ncc(OCCCN)c21 | 941
18 | CCc1ccc(O)c(-c2cc(C(=O)Nc3ccc(OC)c(Cl)c3)[nH]n2)c1 | 870
19 | COCCNCc1cccc(-c2ccc(CNC3CCN(Cc4ccccc4)CC3)cc2)c1 | 508
20 | Cn1nc(-c2cccc(CNCCc3cccs3)c2)c2cnc(NC3CCCC3)nc21 | 1890
21 | CC(C)CNCc1cccc(-c2ccccc2CNC2CCN(Cc3ccccc3)CC2)c1 | 579
22 | O=C(NCC(CCN1CCC(c2c[nH]c3ccccc23)CC1)c1ccccc1)Nc1ccc(Cl)c(Cl)c1 (configuration not stated) | 833
23 | Cc1cc(=NN=Cc2cccc(Cl)c2)c2ccccc2[nH]1 | 255
24 | Cc1cc(NC(=O)NCCN2CCC(NS(=O)(=O)c3ccc(Br)cc3)C2)c2ccccc2n1 (configuration not stated) | 602
25 | CC1CN(CCCn2c3ccccc3c3ccc(C(=O)CCCN(C)C)cc32)CC(C)N1 (configuration not stated) | 809
26 | CC[C@]1(C)C[C@@H](NC(=O)NC(=O)c2ccc(OC)cc2)[C@]2(C)[C@H](C)CC[C@]3(CCC(=O)[C@H]32)[C@@H](C)[C@@H]1OC(=O)NC(=O)c1ccc(OC)cc1 | 987

Row | Compound | XC50 [nM]
27 | N=C(N)Nc1cccc(NC(=O)Nc2cccc(NC(=N)N)c2)c1 | 258
28 | N#Cc1cccc(-c2nc(NCc3cccc(C(F)(F)F)c3)nn2-c2cccc(C(F)(F)F)c2)c1 | 592
29 | CSc1nc2nc(C)c(Cc3cccc(F)c3)c(C)n2n1 | 904
30 | CC(=O)N(C)c1ccc(C(=O)Nc2cccc(-c3cccc(-c4nc5cccc(C)c5[nH]4)c3)c2)cc1 | 620
31 | Cc1cccc2nc(-c3ccc(-c4cccc(NC(=O)c5cccc(C(N)=O)c5)c4)cc3)[nH]c12 | 1130
32 | CN1Cc2cc(NC(=O)/C=C/c3ccccc3Cl)ccc2C(C)(C)C1 | 641
33 | COc1ccc(CCC(C)N2CC(N)C(c3cn(C)c4cnccc34)C2)cc1 (configuration not stated) | 1360
34 | Cc1cc(N(C)CCN(C)C)nc(Nc2ccc(Br)cc2)n1 | 801
35 | Cc1nc(-c2ccccc2)nc(N2CCN(C(=O)c3ccco3)CC2)c1Cc1ccccc1F | 927
36 | CCCn1c(O)nnc1SCC(=O)Nc1cc(C(F)(F)F)ccc1Cl | 222
37 | COc1ccccc1N(C)CCNc1cc(C)nc(Nc2ccc(C)cc2)n1 | 1570
38 | Nc1oc2c(CN3CCCCCC3)c(O)ccc2c(=O)c1-c1nc2ccccc2s1 | 516
39 | Cc1cc(N[C@@H](Cc2ccccc2)C(=O)NCCOc2ccccc2)nc(NCCc2ccccc2)n1 | 1030
40 | COc1cccc2cc(C(=O)N[C@@H](CC(C)C)C(=O)N[C@H](C=NN3CC(=O)NC3=O)CC(C)C)oc12 | 920
41 | CCCCCCc1cc2cc(-c3csc(C=Cc4ccccc4)n3)c(=O)oc2cc1O | 970
42 | COc1cccc(CCc2ccc(O)c3c2C[C@H]2C[C@H]4[C@H](N(C)C)C(O)=C(C(N)=O)C(=O)[C@@]4(O)C(O)=C2C3=O)c1 | 850
43 | O=C(O)CCSSc1cccc[n+]1[O-] | 808
44 | Cc1cc(NC2CCN(CC3CCCCC3)C2)nc(Nc2ccc(Br)cc2)n1 (configuration not stated) | 566
45 | O=C(COc1ccccc1Cl)N1CCc2cc3nccc(N4CCN5CCC[C@H]5C4)c3cc21 | 744
46 | COc1ccc(CCNCCCCCCNCCc2ccc(Cl)cc2)c(Cl)c1OC | 825
47 | CC(C)c1ccc(NC(=O)c2ccc(C(=O)NC3CCN(Cc4ccccc4)CC3)cc2)cc1 | 982
48 | COc1cccc(OC(C)(C)c2nc(N[C@@H](C)c3ccccc3)c3cn[nH]c3n2)c1 | 968
49 | NC1=NC(c2ccccc2)(c2ccccc2)C(=O)N1CCCCc1ccccn1 | 1260
50 | Cc1ccc2[nH]c(-c3cc(-c4ccc(CO)cc4)cnc3N)nc2c1 | 861

Row | Compound | XC50 [nM]
51 | CCOC(=O)c1nc2ccc(SC3CCCCC3)cn2c1Br | 1060
52 | Cc1ccc(C(=O)Nc2cc(S(=O)(=O)N3CCCC3)ccc2OCC(F)(F)F)cc1 | 851
53 | CC(=O)N(C)C1CCN(Cc2cccc(-c3ccc(-c4nc5cc(F)ccc5[nH]4)cc3)c2)C1 (configuration not stated) | 957
54 | COc1cccc(C(=O)Nc2ccc(Nc3nc(C)cc(N(C)C)n3)cc2)c1 | 940
55 | CCCCCCCN1CC[C@@H](CCCc2ccnc3ccc(OC)cc23)[C@@H](CNC)C1 | 211
56 | CCOC(=O)c1cn(CC)c2cc(N(C)CCc3ccc(OC)c(OC)c3)c(F)cc2c1=O | 425
57 | Clc1ccc(Nc2nc3nonc3nc2Nc2ccc(Cl)c(Cl)c2)cc1 | 645
58 | CCCC(=O)c1cnc2c(Oc3cc(Cl)ncn3)cccc2c1Nc1ccccc1C | 336
59 | COc1ccc2nc3cc(Cl)ccc3c(NCCN(C)C)c2c1 | 188
60 | CC(C)N1CCC(N(Cc2ccc(-c3ccc(C(F)(F)F)cc3)cc2)C(=O)Cn2c(SCc3cccc(F)c3F)nc(=O)c3ccccc32)CC1 | 1050
61 | CCOc1ccc(C(=O)N2CCOC(CCN3CCC(c4ccccc4)CC3)(c3ccc(Cl)c(Cl)c3)C2)cc1 (configuration not stated) | 854
62 | Cc1cc(C)c(CON2C(=N)N=C(N)NC2(C)C)cc1C | 3.63
63 | CCOc1ccc(Nc2cc(C)nc(Nc3ccc(OCC)cc3)n2)cc1 | 869
64 | CN(c1ccc(NC(=O)Nc2cc(C(C)(C)C)on2)cc1)c1ccnc(NCCOC(=O)Nc2cc(C(C)(C)C)on2)n1 | 752
65 | COc1cc2nc(N3CCC(CNC(=O)c4ccc(-c5ccc(C(=O)N(C)C)cc5)cc4)CC3)nc(N)c2cc1OC | 746
66 | CC(C)(C)N1CCC(N(Cc2ccc(-c3ccc(C(F)(F)F)cc3)cc2)C(=O)Cn2c(CCc3cccc(F)c3F)nc(=O)c3cccnc32)CC1 | 757
67 | COc1cc(NC(=O)c2ccc(-c3ccccc3)cc2)ccc1OCCCN1CCC(c2ccccc2)CC1 | 752
68 | CCCCc1cc(NCC)nc(Nc2ccc(F)cc2)n1 | 790
69 | Cc1cc(N)c2cc(NC(=O)CCC(=O)Nc3ccc4nc(C)cc(N)c4c3)ccc2n1 | 954
70 | CN1CCN(c2ccnc3ccc(NC(=O)Nc4cccc5c(C#N)cccc45)cc23)CC1 | 1050
71 | Cc1cccc(Nc2nc(C)cc(N3CCCN(CC4CCCCC4)CC3)n2)c1 | 1120
72 | COc1cccc(-c2cc(C(=O)NC3CCC(N4CCC(c5ccccc5C)CC4)CC3)[nH]n2)c1 (configuration not stated) | 1120
73 | CC(=O)Nc1ccc2[nH]cc(C3CCN(CCC4CCN(C(=O)/C=C/c5ccc(Cl)c(Cl)c5)CC4)CC3)c2c1 | 776
74 | CCOc1ccc(-c2nonc2NC(=O)c2ccc(OC)cc2)cc1OCC | 822

Row | Compound | XC50 [nM]
75 | Cc1cc(NC(=O)c2cccs2)ccc1OC1CCN(Cc2ccc(F)cc2)CC1 | 481
76 | O=C(NC1CCC(CN2CCC(c3c[nH]c4ccccc34)CC2)CC1)c1cc2ccccc2s1 (configuration not stated) | 729
77 | Cc1cccc2nc(-c3cccc(-c4cccc(CNCc5ccc(S(C)(=O)=O)cc5)c4)c3)[nH]c12 | 299
78 | CNC(=N)c1ccc(NC(=O)c2ccc(C(=O)Nc3ccc(C(=N)NC)cc3)cc2)cc1 | 47.1
79 | N#Cc1cc(C(=O)Nc2ccccc2)c(N)nc1SCC(=O)NC(c1ccccc1)c1cccs1 (configuration not stated) | 605
80 | N#Cc1ccc(CN2CCC(Oc3ccc(NC(=O)c4ccsc4)cc3Cl)C2)cc1 (configuration not stated) | 674
81 | CCC[C@@H]([C@@H](CC1CCCCC1)C(=O)N[C@H](C(=O)Nc1nccs1)[C@@H](C)OCc1ccccc1)N(O)C=O | 78.2
82 | CC(C)CCN1CCC(Oc2ccc(NC(=O)c3ccc4ncccc4c3)cc2Cl)C1 (configuration not stated) | 974
83 | COc1ccc(CNCc2cccc(-c3cccc(-c4nc5cccc(C)c5[nH]4)c3)c2)cc1 | 134
84 | CN(C)CC1c2[nH]c3ccccc3c2CCN1C(=O)Nc1ccc(Cl)c(Cl)c1 (configuration not stated) | 1210
85 | COc1ccccc1C1CCN(CCCCNC(=O)c2ccc(/C=C/c3cc(Cl)cc(Cl)c3)cc2)CC1 | 718
86 | Cc1cn(CC(=O)Nc2cccc(-c3cccc(-c4nc5cc(C(F)(F)F)ccc5[nH]4)c3)c2)c(=O)[nH]c1=O | 681
87 | Cn1cncc1C(=O)Nc1cccc(-c2cccc(-c3nc4cc(F)ccc4[nH]3)c2)c1 | 493
88 | Oc1c(C(Nc2nc3ccccc3s2)c2ccccc2)ccc2cccnc12 (configuration not stated) | 646
89 | CC(=O)N1CCC(C(=O)Nc2ccc(-c3cccc(-c4nc5cccc(C)c5[nH]4)c3)cc2)CC1 | 313
90 | CCN(CC)CCn1c(=N)n(CC(O)c2ccc(Cl)c(Cl)c2)c2ccccc21 (configuration not stated) | 785
91 | O=C(Nc1ccc(C(=O)OCC2CCCN3CCCCC23)cc1)c1ccc(Cl)c(Cl)c1 (configuration not stated) | 721
92 | S=C(NCCc1ccccc1)Nc1ccc2ncsc2c1 | 1400
93 | Cc1cc(NC(c2ccc(Cl)cc2)c2ccc3cccnc3c2O)no1 (configuration not stated) | 1090
94 | N#Cc1ccccc1N1CCN(C2CCC(NC(=O)c3n[nH]c4cc(C(F)(F)F)ccc34)CC2)CC1 (configuration not stated) | 1370
95 | CC1(CCCCN2CC=C(c3c[nH]c4ccccc34)CC2)C(=O)Nc2ccccc21 (configuration not stated) | 138
96 | CN(C)CCNC(=O)c1ccc2c(c1)ncn2-c1cc(OCc2ccccc2C(F)(F)F)c(C(N)=O)s1.CN(C)CCNC(=O)c1ccc2ncn(-c3cc(OCc4ccccc4C(F)(F)F)c(C(N)=O)s3)c2c1 | 809
97 | COc1ccc2c(NN=Cc3ccc(F)cc3)ccnc2c1 | 438
